Results from publication PMC3546728, “Bacterial Over-Expression and Purification of the 3′phosphoadenosine 5′phosphosulfate (PAPS) Reductase Domain of Human FAD Synthase: Functional Characterization and Homology Modeling” (International Journal of Molecular Sciences, 2012).

Assays:
6-His-Δ1-328-hFADS [1] = target: T1, 6-His-Δ1-328-hFADS (Homo sapiens, UniProt Q8NFF5); assay: fluorimetric FAD synthesis rate; format: biochemical; conditions: competitive; data not shown
T1 construct: gene FLAD1; C-terminal PAPS reductase domain, residues 329-587; vector pH6EX3; E. coli Rosetta (DE3); theoretical 31499 Da, ~28 kDa on SDS-PAGE

6-His-Δ1-328-hFADS [2] = target: T1, 6-His-Δ1-328-hFADS; assay: absorbance spectrum of purified holoprotein; HPLC of flavin released by acid; format: binding; conditions: co-purified, tightly bound FAD, 40 mM Hepes/Na, 5 mM β-mercaptoethanol, pH 7.4

T1 sequence (Q8NFF5 329-587, stated change not applied): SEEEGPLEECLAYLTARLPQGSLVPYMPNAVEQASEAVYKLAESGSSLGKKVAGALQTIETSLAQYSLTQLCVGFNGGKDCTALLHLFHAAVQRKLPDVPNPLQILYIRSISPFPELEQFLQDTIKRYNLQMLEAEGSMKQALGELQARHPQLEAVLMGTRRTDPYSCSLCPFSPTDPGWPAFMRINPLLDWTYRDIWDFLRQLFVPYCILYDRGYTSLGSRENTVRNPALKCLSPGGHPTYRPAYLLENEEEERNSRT

Row | Structure (SMILES) | fluorimetric FAD synthesis rate (6-His-Δ1-328-hFADS [1]) | FAD/protein monomer ratio (6-His-Δ1-328-hFADS [2])
1 | Nc1nc2c(ncn2[C@@H]2O[C@H](COP(=O)(O)OP(=O)(O)O)[C@@H](O)[C@H]2O)c(=O)[nH]1 [GDP] | no significant changes were found in competitive inhibition by GDP (data not shown) | –
2 | Cc1cc2nc3c(=O)[nH]c(=O)nc-3n(C[C@H](O)[C@H](O)[C@H](O)COP(=O)(O)OP(=O)(O)OC[C@H]3O[C@@H](n4cnc5c(N)ncnc54)[C@H](O)[C@@H]3O)c2cc1C [FAD] | – | demonstrates that the bound cofactor is FAD with a FAD/protein monomer ratio
